SMILES strings stand for the structures.

In US20090253687A1, “Fused Heterocyclic Compounds and Their Use as Mineralocorticoid Receptor Ligands” (priority 2005, published 2009) one finds inhibition data, which are given here for 22 molecules.

The target in the experiment is T1, Human Mineralocorticoid Receptor (hMR) (Homo sapiens, UniProt P08235).
T1 construct: Full-length cDNA was constructed from two fragments of hMR cDNA amplified separately; expressed in transfected cells; host or cells: FreeStyle 293 cells transiently transfected with pMCMVneo-hMR; supernatant of the freeze-thaw lysate after ultracentrifugation
T1 sequence (P08235 1-984): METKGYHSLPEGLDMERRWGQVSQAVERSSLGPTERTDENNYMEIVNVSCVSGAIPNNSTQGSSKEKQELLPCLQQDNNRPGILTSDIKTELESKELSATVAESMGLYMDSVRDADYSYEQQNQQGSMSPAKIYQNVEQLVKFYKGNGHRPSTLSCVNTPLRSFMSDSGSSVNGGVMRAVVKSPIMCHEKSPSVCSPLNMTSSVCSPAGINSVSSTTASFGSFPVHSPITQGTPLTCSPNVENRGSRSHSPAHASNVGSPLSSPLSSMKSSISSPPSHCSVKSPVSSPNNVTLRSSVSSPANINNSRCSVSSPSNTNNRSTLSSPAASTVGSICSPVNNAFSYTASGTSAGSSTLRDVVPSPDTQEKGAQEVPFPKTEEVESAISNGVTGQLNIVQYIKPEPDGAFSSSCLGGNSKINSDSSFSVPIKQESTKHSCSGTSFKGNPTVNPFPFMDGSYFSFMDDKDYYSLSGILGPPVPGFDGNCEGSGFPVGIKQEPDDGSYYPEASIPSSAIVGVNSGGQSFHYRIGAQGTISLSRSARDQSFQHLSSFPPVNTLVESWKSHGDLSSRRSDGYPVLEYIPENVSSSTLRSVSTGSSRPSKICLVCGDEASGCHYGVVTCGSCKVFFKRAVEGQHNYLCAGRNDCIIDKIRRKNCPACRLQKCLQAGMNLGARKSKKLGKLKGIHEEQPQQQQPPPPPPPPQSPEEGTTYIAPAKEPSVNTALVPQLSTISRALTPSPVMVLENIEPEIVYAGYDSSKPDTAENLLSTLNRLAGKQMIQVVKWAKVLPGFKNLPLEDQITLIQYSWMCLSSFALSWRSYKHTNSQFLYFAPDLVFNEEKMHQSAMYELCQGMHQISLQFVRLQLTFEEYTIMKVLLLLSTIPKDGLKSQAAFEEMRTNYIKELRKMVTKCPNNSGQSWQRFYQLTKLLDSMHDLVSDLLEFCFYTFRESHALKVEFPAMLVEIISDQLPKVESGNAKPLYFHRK
The experiment in a line: Inhibition of binding of [3H]-aldosterone to hMR (lysate of FreeStyle 293 cells expressing hMR). The note with it: compound at 10^−5 M; 10 nM [3H]-aldosterone; hMR lysate 1.0 mg/ml; 16 hr at 4° C.; read-out: Inhibition rate (at 10^−5 M). How it is done:
The following procedures described in this Example were carried out according to the methods described in Molecular Cloning—Cold Spring Harbor Laboratory (1989) or protocols specified by manufacturers. (1) Cloning of Human Mineralocorticoid Receptor (hMR) cDNA hMR cDNA was amplified by polymerase chain reaction (PCR) from human kidney cDNA library. Full-length cDNA was constructed from two fragments of hMR cDNA amplified separately. The primers were designed referring to the nucleotide sequence of hMR cDNA reported by Arriza et. al (Science 1987; 237: 268-275). The PCR reactions were carried out using Pyrobest® DNA polymerase (Takara). The PCR products were electrophoresed in agarose gel, and 1.7 kb (region (i)) and 1.5 kb (region (ii)) DNA fragments were recovered. Each DNA fragment was inserted into pCR®4Blunt-TOPO® vector (Invitrogen). The resulting plasmids thus obtained were designated as pB-hMR (i) and pB-hMR (ii). To obtain the full-length hMR cDNA, pB-hMR (i) was digested with XhoI and PvuI, and pB-hMR (ii) was digested with PvuI and KpnI, respectively, and the two cDNA fragments were ligated into pBlueScript®IISK+ vector (Stratagene). The resulting plasmid thus obtained was designated as pB-hMR. (2) Construction of hMR Expression Plasmid pMCMVneo (described in WO03/099793) was digested with XhoI and KpnI, and 5.6 kb fragment was ligated with 2.9 kb hMR cDNA fragment obtained by digestion of pB-hMR (described in above (1)) with XhoI and KpnI. The plasmid thus obtained was designated as pMCMVneo-hMR. (3) Expression of hMR in FreeStyle 293 Cells and Preparation of Cell Lysate FreeStyle 293 cells were inoculated at 1×10^8 cells in 93 ml FreeStyle™ 293 Expression Medium (Invitrogen) in a 500 ml Erlenmeyer flask and cultured at 37° C. under 8% CO2 for 1 hr. The cells were treated with 6.7 ml of the transfection mixture containing 100 μg of pMCMVneo-hMR obtained in above (2) and 133 μl of FreeStyle™ 293 Transfection Reagent (Invitrogen). The transfected cells were cultivated for 48 hr at 37° C. in 8% CO2 atmosphere. The cultivated cells were centrifuged and washed with TEG buffer (10 mM Tris-HCl (pH 7.2), 50 mM EDTA, 10% glycerol), and resuspended in 10 ml TEGM buffer (10 mM Tris-HCl (pH 7.2), 1 mM EDTA, 10% glycerol, 1 mM β-mercaptoethanol, 10 mM sodium molybdate, 1 mM dithiothreitol, 2 tablets/100 ml of protease inhibitor cocktail tablets (Roche)). The cell suspension was frozen with liquid nitrogen and thawed on ice, and ultra-centrifuged at 225,000×g for 20 min at 4° C. The supernatant fraction including hMR (hMR lysate) was collected and stored at −80° C. (4) Measurement of Inhibition Activity Against Binding of hMR and Aldosterone [^3H]-Aldosterone (Amersham Biosciences) as ligand was added at 10 nM to the reaction mixture including test compound at various concentration and hMR lysate (1.0 mg/ml) obtained in above (3) and mixture was filled up to 50.5 μl with TEGM buffer. The reaction mixture was incubated for 16 hr at 4° C. and 35 μl of dextran/gelatin coated charcoal suspension (5% charcoal, 0.5% dextran T-70 (Amersham Biosciences), 0.1% gelatin (SIGMA), 10 mM Tris HCl (pH 7.2), 1 mM EDTA) was added thereto to separate bound and free radioactive aldosterone. The mixture containing charcoal was incubated for 10 min at 4° C. and centrifuged at 910×g for 10 min at 4° C. Radioactivity in 30 μl of the supernatant was measured by TopCount™ (Packard). For the determination of nonspecific binding, cold Aldosterone instead of drug was added to reaction mixture at 100 μM. Specific binding was determined by subtracting nonspecific binding from total binding.
One may read the inhibition as the drop in the measured response relative to a control, in per cent. As for `O=C1COc2ccc(C3=Nn4cnnc4SC3c3ccccc3)cc2N1` (stereo not shown) [Example 3, 6-(7-phenyl-7H-[1,2,4]triazolo[3,4-b][1,3,4]thiadiazin-6-yl)-2H-1,4-benzoxazin-3(4H)-one], the inhibition at 10 µM is at least 70%.

Take `O=C1COc2ccc(C3=Nn4ccnc4SC3c3ccccc3)cc2N1` (stereo not shown) [Example 5, 6-(2-Phenyl-2H-imidazo[2,1-b][1,3,4]thiadiazin-3-yl)-2H-1,4-benzoxazin-3(4H)-one]: the inhibition at 10 µM was at least 70%.

In the case of `O=C1COc2ccc(C3=Nn4cc(C(F)(F)F)nc4SC3c3ccccc3)cc2N1` (stereo not shown) [Example 7, 6-[2-Phenyl-7-(trifluoromethyl)-2H-imidazo[2,1-b][1,3,4]thiadiazin-3-yl]-2H-1,4-benzoxazin-3(4H)-one], the inhibition at 10 µM was at least 70%.

In the case of `O=C1COc2ccc(C3=Nc4ccccc4SC3c3ccccc3)cc2N1` (stereo not shown) [Example 14, 6-(2-Phenyl-2H-1,4-benzothiazin-3-yl)-2H-1,4-benzoxazin-3(4H)-one], the inhibition at 10 µM was at least 70%.

Regarding `O=C1COc2ccc(C3=Nc4ccccc4OC3c3ccccc3)cc2N1` (stereo not shown) [Example 18, 2-Phenyl-2H,2′H-3,6′-bi-1,4-benzoxazin-3′(4′H)-one], the inhibition at 10 µM is at least 70%.

On to `O=C1COc2ccc(C3=Cc4ccccc4OC3c3ccccc3)cc2N1` (stereo not shown) [Example 19, 6-(2-Phenyl-2H-chromen-3-yl)-2H-1,4-benzoxazin-3(4H)-one], for which the inhibition at 10 µM was at least 70%.

For the molecule `O=C1COc2ccc(C3=Cc4ccccc4SC3c3ccccc3)cc2N1` (stereo not shown) [Example 20, 6-(2-Phenyl-2H-thiochromen-3-yl)-2H-1,4-benzoxazin-3(4H)-one], the inhibition at 10 µM is at least 70%.

Consider `NC1=NC=C(c2ccc3c(c2)NC(=O)CO3)C(c2ccccc2)S1` (stereo not shown) [Example 24, 6-(2-amino-6-phenyl-6H-1,3-thiazin-5-yl)-2H-1,4-benzoxazin-3(4H)-one], for which the inhibition at 10 µM is at least 70%.

In the case of `O=C1COc2ccc(C3=Cn4ccnc4SC3c3ccccc3)cc2N1` (stereo not shown) [Example 26, 6-(7-Phenyl-7H-imidazo[2,1-b][1,3]thiazin-6-yl)-2H-1,4-benzoxazin-3(4H)-one], the inhibition at 10 µM was at least 70%.

Regarding `CCCC1Sc2nncn2N=C1c1ccc2c(c1)NC(=O)CO2` (stereo not shown) [Example 31, 6-(7-Propyl-7H-[1,2,4]triazolo[3,4-b][1,3,4]thiadiazin-6-yl)-2H-1,4-benzoxazin-3(4H)-one], the inhibition at 10 µM was at least 70%.

Turning to `O=C1COc2ccc(C3=Nn4cnnc4SC3c3ccccc3Cl)cc2N1` (stereo not shown) [Example 34, 6-[7-(2-chlorophenyl)-7H-[1,2,4]triazolo[3,4-b][1,3,4]thiadiazin-6-yl]-2H-1,4-benzoxazin-3(4H)-one], the inhibition at 10 µM was at least 70%.

On to `O=C1COc2ccc(C3=Nn4cnnc4SC3c3ccc(F)cc3)cc2N1` (stereo not shown) [Example 35, 6-[7-(4-Fluorophenyl)-7H-[1,2,4]triazolo[3,4-b][1,3,4]thiadiazin-6-yl]-2H-1,4-benzoxazin-3(4H)-one], for which the inhibition at 10 µM is at least 70%.

For the molecule `O=C1COc2ccc(C3=Nc4ccccc4SC3c3ccccn3)cc2N1` (stereo not shown) [Example 43, 6-(2-Pyridin-2-yl-2H-1,4-benzothiazin-3-yl)-2H-1,4-benzoxazin-3(4H)-one], the inhibition at 10 µM is at least 70%.

For `O=C1COc2ccc(C3=Cc4ccccc4SC3c3ccccn3)cc2N1` (stereo not shown) [Example 44, 6-(2-Pyridin-2-yl-2H-thiochromen-3-yl)-2H-1,4-benzoxazin-3(4H)-one], the inhibition at 10 µM is at least 70%.

On to `O=C1COc2ccc(C3=NN(c4ccc(F)cc4)CC3c3ccccc3)cc2N1` (stereo not shown) [Example 49, 6-(1-(4-Fluorophenyl)-4-phenyl-4,5-dihydro-1H-pyrazol-3-yl)-2H-benzo[b][1,4]oxazin-3(4H)-one], for which the inhibition at 10 µM is at least 70%.

Turning to `O=C1COc2ccc(C3=NN(CC(F)(F)F)CC3c3ccccc3)cc2N1` (stereo not shown) [Example 53, 6-(4-Phenyl-1-(2,2,2-trifluoroethyl)-4,5-dihydro-1H-pyrazol-3-yl)-2H-benzo[b][1,4]oxazin-3(4H)-one], the inhibition at 10 µM is at least 70%.

As for `O=C1COc2ccc(C3=NN(C(=O)C(F)(F)F)CC3c3ccccc3)cc2N1` (stereo not shown) [Example 57, 6-(4-Phenyl-1-(2,2,2-trifluoroacetyl)-4,5-dihydro-1H-pyrazol-3-yl)-2H-benzo[b][1,4]oxazin-3(4H)-one], the inhibition at 10 µM is at least 70%.

Turning to `CS(=O)(=O)N1CC(c2ccccc2)C(c2ccc3c(c2)NC(=O)CO3)=N1` (stereo not shown) [Example 59, 6-(1-(Methylsulfonyl)-4-phenyl-4,5-dihydro-1H-pyrazol-3-yl)-2H-benzo[b][1,4]oxazin-3(4H)-one], the inhibition at 10 µM is at least 70%.

Turning to `O=C1COc2ccc(C3=C(c4ccc(F)cc4)C(=O)N(c4ccccc4)C3=O)cc2N1` [Example 65, 3-(4-fluorophenyl)-4-(3-oxo-3,4-dihydro-2H-benzo[b][1,4]oxazin-6-yl)-1-phenyl-1H-pyrrole-2,5-dione], the inhibition at 10 µM was at least 70%.

On to `O=C1COc2ccc(C3=C(c4ccc(F)cc4)C(=O)N(c4ccc(F)cc4)C3)cc2N1` [Example 70, 6-(1,4-Bis(4-fluorophenyl)-5-oxo-2,5-dihydro-1H-pyrrol-3-yl)-2H-benzo[b][1,4]oxazin-3(4H)-one], for which the inhibition at 10 µM was at least 70%.

Take `O=C1COc2ccc(-c3cc(C(F)(F)F)nn3-c3ccc(F)cc3)cc2N1` [Example 71, 6-(1-(4-Fluorophenyl)-3-(trifluoromethyl)-1H-pyrazol-5-yl)-2H-benzo[b][1,4]oxazin-3(4H)-one]: the inhibition at 10 µM was at least 70%.

For the molecule `O=C1COc2ccc(-c3cc(C(F)(F)F)nn3-c3ccc(Cl)cc3)cc2N1` [Example 74, 6-(1-(4-Chlorophenyl)-3-(trifluoromethyl)-1H-pyrazol-5-yl)-2H-benzo[b][1,4]oxazin-3(4H)-one], the inhibition at 10 µM is at least 70%.
